According to patent US8710089B2, “Triazole derivatives as ghrelin analogue ligands of growth hormone secretagogue receptors” (Zentaris GmbH, priority 2005, dated 2014):

Key:
human GHS-R 1a = target: T1, human GHS-R 1a (Homo sapiens, UniProt Q92847); assay: GHS-R 1a receptor-ligand binding assay (membrane preparations from transfected LLC PK-1 cells); settings: displacement of 125I-His9-ghrelin (60 pM); membranes of LLC PK-1 cells transfected with human GHS-R 1a; mean of at least two independent experiments in triplicates
T1 construct: expressed in transfected cells; host or cells: LLC PK-1 porcine renal epithelial cells (ECACC No. 86121112), isolated plasma membranes
How it was run: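 Membranes from LLC PK-1 cells expressing human GHS-R 1a incubated 60 min at 25 °C in 50 mM Tris pH 7.3, 5 mM MgCl2, 2.5 mM EDTA, bacitracin with 60 pM 125I-ghrelin and competitor; nonspecific binding with 10^-6 M ghrelin; filtration read-out.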

[1] = system: young-adult male Sprague-Dawley rats; assay: Feeding behavior (food intake) of young-adult male rats; type: in vivo, rat (Sprague-Dawley)
Experimental: V) Assaying the Feeding Behavior (Food Intake) of Young-Adult Male Rats
The impact of compounds of the invention being GHS receptor analogue ligands on the feeding behaviour, i.e. food intake, of young-adult male rats was assayed.
In principle, assaying the feeding behavior (food intake) of young-adult male rats was performed according to Torsello et al. (Eur. J. Pharmacol. 1998, 360: 123-129).
For the assay, young-adult male Sprague-Dawley rats (Charles River, Calco, Italy), weighing 200-250 g, were used.
Rats had 1 week of acclimation in individual home cages, and animal room conditions (22±2° C., 65% humidity, artificial light from 08.00 to 20.00 h). The following week, they were daily trained to mimic the experimental procedure. Rats maintained free access to dry pellets and tap water throughout the whole experimental period. At the end of training, rats were administered (around 10.00-11.00 a.m.) subcutaneously with the compounds to be tested (160 μg/kg body weight) and/or hexarelin (80 μg/kg body weight) and/or solvent [DMSO (0.4% of total volume), distilled water (4% of total volume), brought to the final volume with physiological saline].
Hexarelin was used to study the effects of the compounds to be tested on stimulated feeding behavior. Immediately after the injections, the animals were returned to their home cages, which contained a known amount of standard rat chow and ad libitum water. Every hour for the following 6 hours, the remaining food was carefully collected and weighed to the nearest 0.1 g. Food intake was normalized for the body weight of the rats and expressed as grams of food eaten per 100 g body weight of rats.
In the following table 4 results obtained for selected compounds of the invention are presented.

[2] = compound 160 μg/kg s.c. + hexarelin 80 μg/kg s.c.
[3] = compound alone, 160 μg/kg body weight s.c.

T1 sequence (Q92847 whole entry): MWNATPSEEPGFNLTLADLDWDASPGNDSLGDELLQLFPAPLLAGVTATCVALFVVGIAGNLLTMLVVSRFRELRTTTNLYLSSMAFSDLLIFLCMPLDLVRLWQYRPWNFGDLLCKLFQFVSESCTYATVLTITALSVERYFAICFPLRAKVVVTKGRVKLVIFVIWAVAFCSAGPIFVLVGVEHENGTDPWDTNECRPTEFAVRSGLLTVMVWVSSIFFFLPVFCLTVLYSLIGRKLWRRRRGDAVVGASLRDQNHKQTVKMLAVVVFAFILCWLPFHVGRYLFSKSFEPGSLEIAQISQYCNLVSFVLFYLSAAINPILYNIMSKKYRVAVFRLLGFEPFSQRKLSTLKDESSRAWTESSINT

Structure (SMILES) | IC50 (human GHS-R 1a) [nM] | other results
CC(C)(N)C(=O)N[C@H](Cc1c[nH]c2ccccc12)c1nnc(CCc2c[nH]c3ccccc23)n1CCc1c[nH]c2ccccc12 [compound 17, (R)—N-(1-(4,5-bis(2-(1H-indol-3-yl)ethyl)-4H-1,2,4-triazol-3-yl)-2-(1H-indol-3-yl)ethyl)-2-amino-2-methylpropanamide] | 156 | Cumulative food intake (after 2 hours) [1, 2]: 0.0501 ± 0.049 g food/100 g body weight; Cumulative food intake (after 6 hours) [1, 2]: 0.846 ± 0.411 g food/100 g body weight; Cumulative food intake (after 2 hours) [1, 3]: 0.001 ± 0.001 g food/100 g body weight; Cumulative food intake (after 6 hours) [1, 3]: 0.2661 ± 0.166 g food/100 g body weight
COc1ccc(Cn2c(CCc3ccccc3)nnc2[C@@H](Cc2c[nH]c3ccccc23)NC(=O)[C@H]2CCCCN2)cc1 [compound 49, (R)—N—((R)-1-(4-(4-methoxybenzyl)-5-phenethyl-4H-1,2,4-triazol-3-yl)-2-(1H-indol-3-yl)ethyl)piperidine-2-carboxamide] | – | Cumulative food intake (after 2 hours) [1, 2]: 0.057 ± 0.037 g food/100 g body weight; Cumulative food intake (after 6 hours) [1, 2]: 0.558 ± 0.212 g food/100 g body weight; Cumulative food intake (after 2 hours) [1, 3]: 0.004 ± 0.004 g food/100 g body weight; Cumulative food intake (after 6 hours) [1, 3]: 0.004 ± 0.004 g food/100 g body weight
CC(C)(N)C(=O)N[C@H](Cc1c[nH]c2ccccc12)c1nnc(CCCc2c[nH]c3ccccc23)n1CCc1c[nH]c2ccccc12 [compound 24, (R)—N-(1-(4-(2-(1H-indol-3-yl)ethyl)-5-(3-(1H-indol-3-yl)propyl)-4H-1,2,4-triazol-3-yl)-2-(1H-indol-3-yl)ethyl)-2-amino-2-methylpropanamide] | 29 | Cumulative food intake (after 2 hours) [1, 2]: 0.586 ± 0.252 g food/100 g body weight; Cumulative food intake (after 6 hours) [1, 2]: 0.912 ± 0.359 g food/100 g body weight; Cumulative food intake (after 2 hours) [1, 3]: 0.008 ± 0.008 g food/100 g body weight; Cumulative food intake (after 6 hours) [1, 3]: 0.215 ± 0.200 g food/100 g body weight
COc1ccc(Cn2c(CCc3ccccc3)nnc2[C@@H](Cc2c[nH]c3ccccc23)NC(=O)c2cnccn2)cc1 [compound 76, (R)—N-(1-(4-(4-methoxybenzyl)-5-phenethyl-4H-1,2,4-triazol-3-yl)-2-(1H-indol-3-yl)ethyl)pyrazine-2-carboxamide] | 14 | –
COc1ccc(Cn2c(CCc3c[nH]c4ccccc34)nnc2[C@@H](Cc2c[nH]c3ccccc23)NC(=O)[C@@H]2CCCN2)cc1 [compound 89, (S)—N—((R)-1-(5-(2-(1H-indol-3-yl)ethyl)-4-(4-methoxybenzyl)-4H-1,2,4-triazol-3-yl)-2-(1H-indol-3-yl)ethyl)pyrrolidine-2-carboxamide] | 9 | –
COc1ccc(Cn2c(CCc3c[nH]c4ccccc34)nnc2[C@@H](Cc2c[nH]c3ccccc23)NC(=O)[C@@H]2C=CCN2)cc1 [compound 190, (2S)—N—((R)-1-(5-(2-(1H-indol-3-yl)ethyl)-4-(4-methoxybenzyl)-4H-1,2,4-triazol-3-yl)-2-(1H-indol-3-yl)ethyl)-2,5-dihydro-1H-pyrrole-2-carboxamide] | 12 | –
CC(C)(N)C(=O)N[C@H](Cc1c[nH]c2ccccc12)c1nnc(CCCc2c[nH]c3ccccc23)n1Cc1cccc2ccccc12 [compound 11, (R)—N-(1-(5-(3-(1H-indol-3-yl)propyl)-4-(naphthalen-1-ylmethyl)-4H-1,2,4-triazol-3-yl)-2-(1H-indol-3-yl)ethyl)-2-amino-2-methylpropanamide] | 137 | –
CCc1ccc(Cn2c(CCc3ccccc3)nnc2[C@@H](Cc2c[nH]c3ccccc23)NC(=O)C2CNCCN2)cc1 (mixture of isomers) [compound 84] | 247 | –
COc1ccc(-n2c(CCc3ccccc3)nnc2[C@@H](Cc2c[nH]c3ccccc23)NC(=O)Cc2ccccn2)c(OC)c1 [compound 160, N—((R)-2-(1H-indol-3-yl)-1-(4-(2,4-dimethoxyphenyl)-5-phenethyl-4H-1,2,4-triazol-3-yl)ethyl)-2-(pyridin-2-yl)acetamide] | 121 | –
COc1ccc(Cn2c(CCc3ccccc3)nnc2[C@@H](Cc2c[nH]c3ccccc23)NC(=O)[C@@H]2CCCN2)cc1 [compound 46, (S)—N—((R)-1-(4-(4-methoxybenzyl)-5-phenethyl-4H-1,2,4-triazol-3-yl)-2-(1H-indol-3-yl)ethyl)pyrrolidine-2-carboxamide] | 12 | –
CCc1ccc(Cn2c(CCc3ccccc3)nnc2[C@@H](Cc2c[nH]c3ccccc23)NC(=O)C2CCNCC2)cc1 [compound 83, (R)—N-(1-(4-(4-ethylbenzyl)-5-phenethyl-4H-1,2,4-triazol-3-yl)-2-(1H-indol-3-yl)ethyl)piperidine-4-carboxamide] | 19 | –
COc1ccc(Cn2c(CCc3ccccc3)nnc2[C@@H](Cc2c[nH]c3ccccc23)NC(=O)c2ccc(N=[N+]=[N-])cc2)c(OC)c1 [compound 188, N—((R)-1-(4-(2,4-dimethoxybenzyl)-5-phenethyl-4H-1,2,4-triazol-3-yl)-2-(1H-indol-3-yl)ethyl)-4-azidobenzamide] | 87 | –
COc1ccc(Cn2c(CCc3ccccc3)nnc2[C@@H](Cc2c[nH]c3ccccc23)NCCN)c(OC)c1 [compound 180, N-1-((R)-1-(4-(2,4-dimethoxybenzyl)-5-phenethyl-4H-1,2,4-triazol-3-yl)-2-(1H-indol-3-yl)ethyl)ethane-1,2-diamine] | 189 | –
COc1ccc(Cn2c(CCc3c[nH]c4ccccc34)nnc2[C@@H](Cc2c[nH]c3ccccc23)NC(=O)[C@H]2CCCCN2)cc1 [compound 88, (R)—N—((R)-1-(5-(2-(1H-indol-3-yl)ethyl)-4-(4-methoxybenzyl)-4H-1,2,4-triazol-3-yl)-2-(1H-indol-3-yl)ethyl)piperidine-2-carboxamide] | 29 | –
COc1ccc(Cn2c(CCc3ccccc3)nnc2[C@@H](Cc2c[nH]c3ccccc23)NC(=O)CCc2cccnc2)cc1 [compound 59, (R)—N-(1-(4-(4-methoxybenzyl)-5-phenethyl-4H-1,2,4-triazol-3-yl)-2-(1H-indol-3-yl)ethyl)-3-(pyridin-3-yl)propanamide] | 173 | –
COc1cc(Cn2c(CCc3c[nH]c4ccccc34)nnc2[C@@H](Cc2c[nH]c3ccccc23)NC(=O)C(C)(C)N)cc(OC)c1 [compound 21, (R)—N-(1-(5-(2-(1H-indol-3-yl)ethyl)-4-(3,5-dimethoxybenzyl)-4H-1,2,4-triazol-3-yl)-2-(1H-indol-3-yl)ethyl)-2-amino-2-methylpropanamide] | 203 | –
CCCCCCn1c(CCCc2c[nH]c3ccccc23)nnc1[C@@H](Cc1c[nH]c2ccccc12)NC(=O)C(C)(C)N [compound 16, (R)—N-(1-(5-(3-(1H-indol-3-yl)propyl)-4-hexyl-4H-1,2,4-triazol-3-yl)-2-(1H-indol-3-yl)ethyl)-2-amino-2-methylpropanamide] | 240 | –
COc1ccc(Cn2c(CCc3ccccc3)nnc2[C@@H](Cc2c[nH]c3ccccc23)NC(=O)c2ccncc2)c(OC)c1 [compound 65, (R)—N-(1-(4-(2,4-dimethoxybenzyl)-5-phenethyl-4H-1,2,4-triazol-3-yl)-2-(1H-indol-3-yl)ethyl)isonicotinamide] | 58 | –
COc1ccc(Cn2c(CCc3c[nH]c4ccccc34)nnc2[C@@H](Cc2c[nH]c3ccccc23)NC(=O)CN)c(OC)c1 [compound 69, (R)—N-(1-(5-(2-(1H-indol-3-yl)ethyl)-4-(2,4-dimethoxybenzyl)-4H-1,2,4-triazol-3-yl)-2-(1H-indol-3-yl)ethyl)-2-aminoacetamide] | 38 | –
COc1ccc(Cn2c(CCc3ccccc3)nnc2[C@@H](Cc2c[nH]c3ccccc23)NC(=O)Cc2cccnc2)cc1 [compound 58, (R)—N-(1-(4-(4-methoxybenzyl)-5-phenethyl-4H-1,2,4-triazol-3-yl)-2-(1H-indol-3-yl)ethyl)-2-(pyridin-3-yl)acetamide] | 29 | –
COc1ccc(Cn2c(CCc3c[nH]c4ccccc34)nnc2[C@@H](Cc2c[nH]c3ccccc23)NC(=O)C2CCCCN2)c(OC)c1 (stereo partly drawn) [compound 36, (R)—N-(1-(5-(2-(1H-indol-3-yl)ethyl)-4-(2,4-dimethoxybenzyl)-4H-1,2,4-triazol-3-yl)-2-(1H-indol-3-yl)ethyl)piperidine-2-carboxamide] | 53 | –
